# Results published in article PMC7451656, “In vitro and in vivo growth inhibitory activities of cryptolepine hydrate against several Babesia species and Theileria equi” (PLoS Neglected Tropical Diseases, 2020).
# Tests used:
# [1] = test system: B. bovis; experiment: Growth inhibitory fluorescence assay in vitro, B. bovis; assay type: cell-based, Babesia bovis
# Description: (§1) Texas strain of B. bovis and Argentina strain of B. bigemina were grown using bovine red blood cells (RBCs, collected from cattle farm of Obihiro University of Agriculture and Veterinary Medicine and stored at 4°C) in medium 199 (M199; Sigma-Aldrich, Tokyo, Japan) supplemented with 40% bovine serum, while RPMI 1640 medium (Sigma-Aldrich, Tokyo, Japan) was used for B. divergens (German strain) cultivation. The United States Department of Agriculture (USDA) strain of T. equi was grown in equine RBCs (collected from horse farm of Obihiro University of Agriculture and Veterinary Medicine and stored at 4°C) in M199 supplemented with 40% equine serum, and hypoxanthine (MP Biomedicals, Santa Ana, CA, USA) at a final concentration of 13.6 μg/ml was used as a vital supplement, while GIT medium was used for B. caballi (USDA strain) cultivation. Sixty μg/ml of streptomycin, 0.15 μg/ml of amphotericin B, and 60 U/ml of penicillin G (Sigma-Aldrich, Tokyo, Japan) were added to all media to prevent fungal and bacterial contamination. All parasite cultures were maintained for a long time in a microaerophilic stationary-phase culture system.
# (§2) The inhibition assay was conducted according to the previously described protocol. Briefly, different concentrations of CRY, DA, CF, and AQ were added in triplicate in 96-well plates with 1% parasitemia and 2.5% HCT for B. bovis and B. bigemina and 5% HCT for B. divergens, B. caballi, and T. equi. The plates were incubated in a humidified incubator with 5% CO2, 5% O2, and 90% N2 for 96 h without changing the media. After 96 h, 100 μl of lysis buffer containing 2 × SG1 was directly added to each well and the plates were then wrapped in aluminum foil for protection from direct light and incubated for 6 h at room temperature. Afterward, the fluorescence was measured using a fluorescence spectrophotometer (Fluoroskan Ascent, Thermo Fisher Scientific, USA) at 485 nm excitation and 518 nm emission wavelengths. The relative fluorescence value was set to percentages after subtracting the mean values of the negative control. The experiment was repeated thrice.
# (§3) The IC50 values of CRY, DA, CF, and AQ were determined using the nonlinear regression curve fit in GraphPad Prism (GraphPad Software Inc., San Diego, CA, USA). Combination index (CI) values for the drug combination were calculated using CompuSyn software, and the degree of synergism was determined as the weighted average of CI values using a formula [(1 x IC50) + (2 x IC75) + (3 x IC90) + (4 x IC95)]/10 [30]. The differences in parasitemia and hematology profiles in the B. microti–infected mice were analyzed using an independent Student’s t-test and one-way ANOVA test using GraphPad Prism version 5.0 for Windows (GraphPad Software Inc., San Diego, CA, USA). A P-value < 0.05 was considered statistically significant.
# [2] = test system: B. bigemina; experiment: Growth inhibitory fluorescence assay in vitro, B. bigemina; assay type: cell-based, Babesia bigemina
# Description: as §1, §2, §3
# [3] = test system: B. divergens; experiment: Growth inhibitory fluorescence assay in vitro, B. divergens; assay type: cell-based, Babesia divergens
# Description: as §1, §2, §3
# [4] = test system: B. caballi; experiment: Growth inhibitory fluorescence assay in vitro, B. caballi; assay type: cell-based, Babesia caballi
# Description: as §1, §2, §3
# [5] = test system: T. equi; experiment: Growth inhibitory fluorescence assay in vitro, T. equi; assay type: cell-based, Theileria equi
# Description: as §1, §2, §3
# [6] = test system: Madin–Darby bovine kidney (MDBK) cell line; experiment: cells; assay type: cell-based; conditions: for EC50: cell viability, MDBK, 24 h, CCK-8
# Description: (§4) Madin–Darby bovine kidney (MDBK) (ECACC), mouse embryonic fibroblast (NIH/3T3 ATCC CRL-1658) and Human foreskin fibroblast (HFF HFF-1 ATCC SCRC-1041) cell lines were recovered from -80°C stock and cultured continuously in our laboratory at 37°C in a humidified incubator with 5% CO2. In 75 cm^2 culture flasks, NIH/3T3 and HFF cell lines were maintained with Dulbecco’s Modified Eagle’s Medium (DMEM; Gibco, Grand Island, NY, USA), while the MDBK cell line was maintained with Minimum Essential Medium Eagle (MEM; Gibco). Ten percent fetal bovine serum, 1% glutamine, and 0.5% penicillin/streptomycin (Gibco) were added to all media and the cells were stained with 4, 6-diamidino-2-phenylindole dihydrochloride (DAPI; Sigma-Aldrich, St. Louis, MO, USA) to ensure that they were free from mycoplasma contamination. Afterward, the cells were washing twice with Dulbecco’s phosphate-buffered saline and TrypLE Express (Gibco) was used for cell detachment from the culture flask. Finally, Neubauer improved C-Chip (NanoEntek Inc., Seoul, Korea) was used for counting the viable cells after staining with 0.4% trypan blue solution.
# (§5) The cytotoxicity assay was performed in accordance with the previously described protocol. Briefly, the assay was carried out using 96-well plates at 37 °C in a humidified incubator with 5% CO2, 100 μl of cells at a density of 5 x 10^4 cells/ml was seeded per well and allowed to attach to the plate for 24 h. Ten microliters of twofold drug dilutions was added to each well to a final concentration of 0.781 to 100 μM in triplicate and incubated for another 24 h. Ten μl of Cell Counting Kits-8 (CCK-8; Dojindo, Japan) was added to each well and incubated for another 3 h, and the absorbance was measured at 450 nm using a microplate reader.
# [7] = test system: human foreskin fibroblast (HFF) cell line; experiment: cells; assay type: cell-based; conditions: for EC50: cell viability, HFF, 24 h, CCK-8
# Description: as §4, §5
# [8] = test system: mouse embryonic fibroblast (NIH/3T3) cell line; experiment: cells; assay type: cell-based; conditions: for EC50: cell viability, NIH/3T3, 24 h, CCK-8
# Description: as §4, §5
# [9] = test system: B. microti; experiment: Chemotherapeutic effect against B. microti in mice (parasitemia); assay type: in vivo, Babesia microti; conditions: BALB/c mice, 25 mg/kg DA i.p.
# Description: Rodent B. microti (Munich strain) was recovered from -80°C stock and injected intraperitoneally (i.p.) in two 8-week-old female BALB/c mice purchased from CLEA Japan (Clea Japan, Tokyo, Japan). The mice were euthanized using an anesthesia system containing isoflurane after parasitemia reached approximately 30% and the blood was collected by cardiac puncture to conduct the in vivo studies.
# (§6) The promising effect of CRY in vitro encouraged us to evaluate its in vivo effects against B. microti in mice. The assay was conducted in accordance with the previously described protocol. In two separate trials, 35 female 8-week-old BALB/c mice, housed under a pathogen-free environment with controlled humidity, temperature (22°C) and a 12 h light/ dark cycle were caged in seven groups, each group consisting of five mice. Six groups were i.p. injected with 0.5 ml of inoculum (1×10^7 B. microti iRBCs), while the seventh group was left uninfected and untreated to act as a negative control. When the average parasitemia in all infected mice reached approximately 1%, the 5-day drug treatment was initiated. The first and second groups were i.p. injected with 25 mg/kg body weight (BW) of DA and 5 mg/kg BW of CRY, respectively. The third group received 20 mg/kg BW of AQ orally, while the fourth and fifth groups were administered a combination of 2.5 mg/kg BW CRY + 12.5 mg/kg BW DA and 2.5 mg/kg BW CRY + 10 mg/kg AQ via a route similar to that of the single-drug treatment, respectively. The sixth group received 5% DMSO in physiological saline i.p. as a positive control. Parasitemia and hematology profiles (RBCs, hemoglobin (HGB), and HCT) were monitored every 2 and 4 days by microscopic examination and hematology analyzer (Celltac α MEK-6450, Nihon Kohden Corporation, Tokyo, Japan), respectively. On day 49, all mice were euthanized using an anesthesia system containing isoflurane and the blood was collected by cardiac puncture for PCR detection of the parasites.
# [10] = test system: B. microti small-subunit rRNA (ss-rRNA) gene; experiment: Nested PCR detection of B. microti DNA in blood of treated mice; assay type: in vivo, Babesia microti; conditions: day 49, 25 mg/kg DA
# Description: as §6
# The nested PCR (nPCR) that targeted the B. microti small-subunit rRNA (ss-rRNA) gene was performed in accordance with the previously described protocol and the genomic DNA was extracted from blood samples collected from all mice groups on day 49 post-infection (p.i.) using a QIAamp DNA Blood Mini Kit (Qiagen, Tokyo, Japan). PCR cycling conditions were performed as previously described and the bands with an expected size of 154 bp were considered positive.
structure (smiles),measurement,setting,value
"CC(=O)NCC(=O)O.CC(=O)NCC(=O)O.N=C(N)c1ccc(N=NNc2ccc(C(=N)N)cc2)cc1 [DA, diminazene aceturate]",IC50,"[1]; B. bovis in vitro culture, fluorescence assay, 96 h",350 ± 0.06 nM
same,IC50,"[2]; B. bigemina in vitro culture, fluorescence assay, 96 h",680 ± 0.09 nM
same,IC50,"[3]; B. divergens in vitro culture, fluorescence assay, 96 h, read-out: IC50",430 ± 0.05 nM
same,IC50,"[4]; B. caballi in vitro culture, fluorescence assay, 96 h",22 ± 0.0002 nM
same,IC50,"[5]; T. equi in vitro culture, fluorescence assay, 96 h",710 ± 0.05 nM
same,inhibition of cell line at 100 μM,[6],did not show any inhibition
same,EC50,[6],> 100 µM
same,inhibition of cell line at 100 μM,[7],did not show any inhibition
same,EC50,[7],> 100 µM
same,inhibition of cell line at 100 μM,[8],did not show any inhibition
same,EC50,[8],> 100 µM
same,day p.i. on which parasitemia was undetectable by microscopy,[9],16 days
same,peak parasitemia level,"[9]; 5 days, day 10",8.5%
same,parasite DNA in blood (nPCR),[10],not detected
"CC(C)/N=c1\cc2n(-c3ccc(Cl)cc3)c3ccccc3nc-2cc1Nc1ccc(Cl)cc1 [CF, clofazimine]",Selective index HFF,[1]; EC50 HFF / IC50 B. bovis,˃ 12.1
same,Selective index MDBK,[1]; EC50 MDBK / IC50 B. bovis,4.2
same,Selective index NIH/3T3,[1]; EC50 NIH/3T3 / IC50 B. bovis,˃ 12.1
same,Selective index HFF,[2]; EC50 HFF / IC50 B. bigemina,˃ 17.5
same,Selective index MDBK,[2]; EC50 MDBK / IC50 B. bigemina,6.1
same,Selective index NIH/3T3,[2]; EC50 NIH/3T3 / IC50 B. bigemina,˃ 17.5
same,Selective index HFF,[3]; EC50 HFF / IC50 B. divergens,˃ 7.2
same,Selective index MDBK,[3]; EC50 MDBK / IC50 B. divergens,2.5
same,Selective index NIH/3T3,[3]; EC50 NIH/3T3 / IC50 B. divergens,˃ 7.2
same,Selective index HFF,[4]; EC50 HFF / IC50 B. caballi,˃ 12.6
same,Selective index MDBK,[4]; EC50 MDBK / IC50 B. caballi,4.4
same,Selective index NIH/3T3,[4]; EC50 NIH/3T3 / IC50 B. caballi,˃ 12.6
same,Selective index HFF,[5]; EC50 HFF / IC50 T. equi,˃ 34.7
same,Selective index MDBK,[5]; EC50 MDBK / IC50 T. equi,12.1
same,Selective index NIH/3T3,[5]; EC50 NIH/3T3 / IC50 T. equi,˃ 34.7
same,EC50,[6]; Bos taurus,34 ± 3.4 µM
same,EC50,[6],34.7 ± 3.4 µM
same,EC50,[7]; Homo sapiens,> 100 µM
same,EC50,"[8]; Mus musculus, NIH3T3",> 100 µM
